Laboratory results reported in patent US11633454B2, “Compositions and methods for treating metabolic diseases” (SHANGHAI HEP PHARMACEUTICAL CO., LTD., priority 2016, dated 2023).
One block for each compound: values may come before it.

Tests used:
[1] = system: hyperlipidemic golden hamsters; assay: Hyperlipidemic golden hamster model, 4 weeks of treatment; assay type: in vivo; conditions: 50 mg/kg FENO po
[2] = system: Zucker Diabetic Fatty (ZDF) rats; assay: Zucker Diabetic Fatty (ZDF) rats, 4 weeks of treatment (GLU, HbA1c, insulin, TC, TG, BUN, organ index, TBA); assay type: in vivo, rat
NTCP = molecular target: T1, NTCP (Homo sapiens, UniProt Q14973); assay: In vitro bile acids assay (3H-TA uptake by NTCP-293 cells)
T1 sequence (Q14973 1-349): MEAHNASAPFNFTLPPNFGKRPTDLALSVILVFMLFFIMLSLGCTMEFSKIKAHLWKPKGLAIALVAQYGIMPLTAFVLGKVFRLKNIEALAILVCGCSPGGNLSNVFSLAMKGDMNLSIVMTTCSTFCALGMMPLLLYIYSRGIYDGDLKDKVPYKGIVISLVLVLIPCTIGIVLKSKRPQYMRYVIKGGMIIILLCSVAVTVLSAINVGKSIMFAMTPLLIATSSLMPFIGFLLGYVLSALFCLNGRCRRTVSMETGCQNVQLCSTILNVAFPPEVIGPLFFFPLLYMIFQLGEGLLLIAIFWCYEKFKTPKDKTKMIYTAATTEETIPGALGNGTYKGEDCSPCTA

[3] = 300 mg/kg Met, 2 weeks of dosing
[4] = 300 mg/kg Met, 4 weeks of dosing
[5] = ZDF rats, after 4 weeks of treatment, 300 mg/kg Met oral gavage, mean ± SEM

Compound: CC(C)OC(=O)C(C)(C)Oc1ccc(C(=O)c2ccc(Cl)cc2)cc1 [FENO, Fenofibrate]
Serum TC (χ ± S) ([1]; 2 w of dosing): 6.63 ± 4.40 mmol/L | Serum TG (χ ± S) ([1]; 2 w of dosing): 3.14 ± 0.4 mmol/L | Serum TC (χ ± S) ([1]; 4 w of dosing): 7.42 ± 1.70 mmol/L | Serum TG (χ ± S) ([1]; 4 w of dosing): 2.68 ± 0.30 mmol/L | Serum HDL-C ([1]; 4 weeks post the treatment): 3.13 ± 0.30 mmol/L | Serum LDL-C ([1]; 4 weeks post the treatment): 1.88 ± 0.40 mmol/L | AI (atherosclerosis index) ([1]; 4 weeks, AI=(TC−HDL-C)/HDL-C): 1.36 ± 0.38 | Serum TC (χ ± S) ([1]; before dosing): 11.34 ± 0.50 mmol/L | Serum TG (χ ± S) ([1]; before dosing): 6.16 ± 1.30 mmol/L

Compound: CN(C)C(=N)N=C(N)N [Met, Metformin]
Fasting serum GLU (χ ± SEM) ([2]; 300 mg/kg Met oral gavage, 2 weeks of dosing): 7.98 ± 1.02 mmol/L | Fasting serum GLU (χ ± SEM) ([2]; 300 mg/kg Met oral gavage, 4 weeks of dosing): 8.35 ± 0.58 mmol/L | Fasting serum GLU (χ ± SEM) ([2]; 300 mg/kg Met oral gavage, week 0): 9.71 ± 0.96 mmol/L | Serum BUN (χ ± SEM) [2, 3]: 6.58 ± 0.52 mM | Serum TC (χ ± SEM) [2, 3]: 5.24 ± 0.35 mM | HbA1c level (χ ± SEM) [2, 4]: 5.07 ± 0.23 % | Serum BUN (χ ± SEM) [2, 4]: 7.09 ± 0.36 mM | Serum TC (χ ± SEM) [2, 4]: 6.95 ± 0.54 mM | HbA1c level (χ ± SEM) ([2]; 300 mg/kg Met, week 0): 6.25 ± 0.31% | Serum BUN (χ ± SEM) ([2]; 300 mg/kg Met, week 0): 5.52 ± 0.21 mM | Serum TC (χ ± SEM) ([2]; 300 mg/kg Met, week 0): 3.82 ± 0.11 mM | Serum insulin (χ ± SEM) ([2]; 300 mg/kg Met, week 0): 6.74 ± 0.62 ng/mL | Heart index (HI) vs model controls ([2]; MET 300 mg/kg, 4 weeks, FIG. 27A): had no effect on the HI values | Total fat index (TFI) vs model controls ([2]; MET 300 mg/kg, 4 weeks, FIG. 27C): appeared to increase the TFI values | Fasting serum GLU ([2]; MET positive control in the experiment with additional polypeptides, FIGS. 18A, 18B): significantly decreased fasting serum GLU | Serum TBA level after weeks of dosing ([2]; ZDF rats, 300 mg/kg Met, week 0, mean ± SEM): 32.8 ± 12.3 µM | Serum TBA level after weeks of dosing ([2]; ZDF rats, 300 mg/kg Met, week 2, mean ± SEM): 82.5 ± 27 µM | Serum TBA level after weeks of dosing ([2]; ZDF rats, 300 mg/kg Met, week 4, mean ± SEM): 83 ± 15.8 µM | Heart index [2, 5]: 3.63 ± 0.24 g/kg | Kidney index [2, 5]: 7.26 ± 0.55 g/kg | Total fat index [2, 5]: 94.64 ± 3.79 g/kg

Effect on TA absorption (NTCP; 0.1 μmol/L, FIG. 5E): enhanced TA absorption | Effect on TA absorption (NTCP; 20 μmol/L, FIG. 5F): enhanced TA absorption
Compound: C=C[C@H]1C[N@@]2CC[C@H]1C[C@@H]2[C@@H](O)c1ccnc2ccc(OC)cc12 [quinidine]
